Experimental data from patent US20170165322A1, “PEPTIDE AND SMALL MOLECULE AGONISTS OF EPHA AND THEIR USES IN DISEASE” (CASE WESTERN RESERVE UNIVERSITY, priority 2006, published 2017).

How the values were obtained:
[1] = system: ERK1/2; experiment: Immunoblot of p-ERK1/2 in DU145 cells; assay type: cell-based, human; conditions: DU145-vector, okadaic acid pretreatment 1 h, then ephrin-A1 30 min
Description: (§1) A Immunoblot analysis of the expression and tyrosine phosphorylation of EphA2 in DU145 cells. Parental DU145 cells were stably infected with a retroviral vector expressing wild-type EphA2 or empty vector. Clonal puromycin-resistant cells were isolated and expanded. The selected cells at 70-80% confluence were stimulated with 2 μg/ml ephrin-A1-Fc for the indicated times. The total cell lysates were resolved by SDS-PAGE and then probed with rabbit polyclonal anti-p-EphA/B and anti-EphA2 antibodies. […] The cells were treated as described in (A). Cell lysates were subject to immunoblot with the indicated antibodies.
(§2) DU145-vector cells were pretreated with okadaic acid (10, 50, and 250 nM) for 1 h, followed by stimulation with ephrin-A1-Fc for 30 min. The total cellular lysates were prepared and subjected to immunoblot analyses as described in FIG. 1 using the indicated antibodies. Notes: Okadaic acid inhibits only PP2A at low concentrations (<100 nM), but it inhibits both PP1 and PP2A at higher concentrations (>100 nM).
(§3) A. Cells were treated with rapamycin (1 nM) in the absence or presence of ephrin-A1 (2 μg/ml) for the indicated times Immunoblot analysis was performed as described above. […]

[2] = system: PP1; conditions: higher concentrations; cited from earlier work
[3] = system: Akt; experiment: Immunoblot of p-Akt (Ser473) in DU145 cells; assay type: cell-based, human; conditions: DU145-vector, then ephrin-A1 30 min
Description: as §1, §2, §3

[4] = system: PP2A; conditions: low concentrations; cited from earlier work
[5] = system: H460 xenograft; experiment: H460 xenograft growth in nude mice; assay type: in vivo, human; conditions: ephrin-A1-Fc 5 μg/g i.p. once every two days, five times, Alimta 150 mg/kg i.p. daily x 5 days
Description: FIGS. 16(A-B) illustrate, A) Systemic treatment with ephrin-A1-Fc, but not control Fc, inhibited the growth of H1975 NSCLC xenografts. Eight-week old NCR nude mice were injected with 2×10^6 H1975 cells s.c. into the hind flanks. One week later, when the tumors had reached an average of about 100 mm3, mice (5/group) were injected i.p. twice a week with Fc or ephrin-A1-Fc at 2.5 or 5.0 μg/g. Equal volume of PBS was used as control. The day of the first treatment was designated as day 1. Rapid tumor growth necessitated termination of experiment at day 18. B) Comparison between ephrin-A1-Fc and Alimta for therapeutic efficacy on H460 xenografts. Cell implantation and treatment were the same as in (A). Alimta/Pemetrexed was injected at 150 mg/kg, i.p daily×5 days), or ephrin-A1-Fc (5 μg/g, mouse, i.p, once every two days, for five times). Note ephrin-A1-Fc treatment achieved better efficacy of tumor growth inhibition than Alimta, a new drug for lung cancer therapy in this cell type. * Indicates significant difference between PBS and ephrin-A1-treated groups, p<0.05.
We next compared ephrin-A1-Fc and Alimta/Pemetrexed for therapeutic efficacy against H460 xenograft. H460 cells are derived from a lung adenocarcinoma that express moderate levels of EphA2 (not shown). […]

SMILES	effects on ERK1/2 under the same conditions [1]	concentrations at which both PP1 and PP2A are inhibited [2]	effect on Akt dephosphorylation induced by EphA2 activation ([3]; okadaic acid 250 nM pretreatment 1 h)	effect on Akt dephosphorylation induced by EphA2 activation ([3]; okadaic acid 10 and 50 nM pretreatment 1 h)	concentrations at which only PP2A is inhibited [4]	growth of H460 xenograft [5]
C=C1[C@@H](O)[C@@H]2O[C@]3(CC[C@H](/C=C/[C@@H](C)[C@@H]4CC(C)=C[C@@]5(O[C@H](C[C@@](C)(O)C(=O)O)CC[C@H]5O)O4)O3)CC[C@H]2O[C@@H]1[C@@H](O)C[C@H](C)[C@H]1O[C@@]2(CCCCO2)CC[C@H]1C [okadaic acid]	not as pronounced	> 100 nM	completely blocked	did not affect Akt dephosphorylation	< 100 nM	
Nc1nc2[nH]cc(CCc3ccc(C(=O)N[C@@H](CCC(=O)O)C(=O)O)cc3)c2c(=O)[nH]1 [Alimta, Pemetrexed]						minimal effects
